Columns and labels:
Type in all cases: ADME, organism-based
[1] = tested on: Homo sapiens; assay: AUMC (0 to infinity) in liver transplant patient with end-stage liver disease at 200 mg/kg, po bid; set-up: dose 200 mg/kg, route oral; settings: in vivo
[2] = Cmax in liver transplant patient with end-stage liver disease at 200 mg/kg, po bid; set-up: dose 200 mg/kg, route oral; settings: human, in vivo
[3] = Terminal disposition rate in liver transplant patient with end-stage liver disease at 200 mg/kg, po bid; set-up: dose 200 mg/kg, route oral; settings: human, in vivo, read-out: Activity (converted)
[4] = AUC (0 to infinity) in liver transplant patient with end-stage liver disease at 200 mg/kg, po bid; set-up: time infinity, dose 200 mg/kg, route oral; settings: human, in vivo
[5] = Volume of distribution at steady state with respect to bioavailability in liver transplant patient with end-stage liver disease at 200 mg/kg, po bid; settings: human, in vivo, read-out: Vc/F
[6] = tested on: Homo sapiens; assay: Clast in liver transplant patient with end-stage liver disease at 200 mg/kg, po bid; set-up: dose 200 mg/kg, route oral; settings: in vivo
[7] = tested on: Homo sapiens; assay: Plasma concentration in liver transplant patient with end-stage liver disease at 200 mg/kg, po bid; set-up: dose 200 mg/kg, route oral; settings: in vivo
[8] = Terminal half life in liver transplant patient with end-stage liver disease at 200 mg/kg, po bid; set-up: dose 200 mg/kg, route oral; settings: human, in vivo, read-out: beta t1/2 (converted)
[9] = Tmax in liver transplant patient with end-stage liver disease at 200 mg/kg, po bid; set-up: dose 200 mg/kg, route oral; settings: human, in vivo
[10] = Mean residence time in liver transplant patient with end-stage liver disease at 200 mg/kg, po bid; set-up: dose 200 mg/kg, route oral; settings: human, in vivo

Compound `C[C@@H](c1ncncc1F)[C@](O)(Cn1cncn1)c1ccc(F)cc1F` [VORICONAZOLE] has an AUMC [1] of 2557.5 hr.hr.ug/ml, a Cmax [2] of 2900 ng/mL and a k el [3] of 1.67e-05 s⁻¹. For the same compound, the AUC(0-inf) [4] was 25900 ng·h/mL, the Vd/F [5] was 94.5 L and the Clast [6] was 1600 ng/mL. For the same compound, the Cp [7] was 1000 ng/mL, the half-life [8] was 15 h and the Tmax [9] was 1.8 h. The MRT [10] was 78.2 h.

— ChEMBL document CHEMBL1212791 (Antimicrob Agents Chemother, 2010)
